Measurements published in patent publication US20180339053A1, “USE OF 1,2-DICARBOXYLIC ACID MONOAMIDE POLYMER AS SYNERGIST FOR CHEMOTHERAPY” (Nankai University, priority 2017, published 2018).
Several values for one entry are separate records, joined by “and”; a condition that tells them apart may be missing. Identical values can stand only once. Like-named read-outs stand apart in the source and are kept apart here.

Columns and labels:
HepG2 cells = test: Cytotoxicity experiment (MTS) of polymer and anti-cancer drug on HepG2 cells; assay type: cell-based, human; details: for viability at 4 µg/mL / viability at 5 µg/mL: Homo sapiens; for viability at 5 µg/mL: read-out: Cell Viability (%) Taxol
Protocol: (§1) A suspension of HepG2 cells diluted in 100 μL of a complete medium (a RPMI-1640 medium containing 10% fetal bovine serum and 1% penneillin/streptomycin) was added into a 96-well plate at a concentration of 5×10^3 cells per well, cultivated at 37 degrees Celsius for 24 hours. […] The solution was then aspirated, added with 100 μL of fresh complete medium and incubated continually for 24 hours. The culture medium was aspirated, added with 80 μL PBS solution and 20 μL cell proliferation reagent MTS, incubated at 37 degrees Celsius for 1 hour, and then measured with a microplate reader at 490 nm for absorbance.
(§2) This embodiment is an in vitro cell experiment of the effect of a polyallylamine-2,3-dimethyl maleic anhydride modifier with a molecular weight of 15,000 (PAA15K-DMA) for promoting the toxicity of different chemotherapeutic drugs on non-resistant HepG2 cells. According to the method described in Embodiment 4, the concentration of PAA15K-DMA was 25 μg/mL, and the obtained data was shown in Table 1.
as §2, with “polyallylamine-cyclohexene-1,2-dicarboxylic acid” for “polyallylamine-2,3-dimethyl maleic anhydride”, “200,000 (PAA200K-TPA)” for “15,000 (PAA15K-DMA)”, “PAA200K-TPA” for “PAA15K-DMA”, “Table 1 and FIG.” for “Table”
as §1, with “804” for “80 μL”
as §2, with “linear polyethylenimine-cyclohexene-1,2-dicarboxylic acid” for “polyallylamine-2,3-dimethyl maleic anhydride”, “10,000 (LPEI10K-TPA)” for “15,000 (PAA15K-DMA)”, “10,” for “4,”, “LPEI10K-TPA” for “PAA15K-DMA”, “15” for “25”
as §2, with “branched polyethyleneimine-1-methyl” for “polyallylamine-2,3-dimethyl”, “25,000 (BPEI25K-CA)” for “15,000 (PAA15K-DMA)”, “10,” for “4,”, “BPEI25K-CA” for “PAA15K-DMA”, “15” for “25”
(§3) This embodiment is an in vitro cell experiment of the effect of a 3rd-generation dendritic polypropyleneimine-3-carboxy-2-pentenedioic acid modifier (G3 PPI-AA) for promoting the toxicity of different chemotherapeutic drugs on non-resistant HepG2 cells. According to the method described in Embodiment 10, the concentration of G3 PPI-AA was 20 μg/mL, and the obtained data was shown in Table 1.
as §3, with “polypropyleneimine-2,3-dimethyl maleic anhydride” for “polypropyleneimine-3-carboxy-2-pentenedioic acid”, “PPI-DMA)” for “PPI-AA)”, “PPI-DMA” for “PPI-AA”, “1 and FIG. 3.” for “1.”
This embodiment is an in vitro cell experiment of the effect of a branched polylysine-cyclohexene-1,2-dicarboxylic acid modifier having a molecular weight of 2,000 (BPLys2K-TPA) for promoting the toxicity of different chemotherapeutic drugs on non-resistant HepG2 cells. […]

HepG2/ADR cells = test: Cytotoxicity experiment (MTS) of polymer and anti-cancer drug on HepG2/ADR cells; assay type: cell-based; details: Homo sapiens, read-out: Cell Viability (%) Taxol
Protocol: as §1, with “HepG2/ADR” for “HepG2”, “2 hours,” for “1 hour,”
as §1, with “suspension of HepG2/ADR cells diluted” for “suspension of HepG2 cells diluted”, “in 100 IA of a” for “in 100 μL of a”, “Celsius for 2 hours, and then” for “Celsius for 1 hour, and then”, “for absorbance. […]” for “for absorbance.”

[1] = HepG2, pH = 6.5, 5 μg/mL taxol alone (control)
[2] = HepG2, pH = 7.4, 5 μg/mL taxol alone (control)

SMILES | viability at 4 µg/mL (HepG2 cells; HepG2, read-out: Cell Viability (%) Doxorubicin, pH = 6.5, 4 μg/mL doxorubicin alone (control)) [%] | viability at 4 µg/mL (HepG2 cells; HepG2, read-out: Cell Viability (%) Doxorubicin, pH = 7.4, 4 μg/mL doxorubicin alone (control)) [%] | Cell Viability (%) Doxorubicin (HepG2 cells; pH = 6.5, 4 μg/mL doxorubicin alone (control)) | Cell Viability (%) Doxorubicin (HepG2 cells; pH = 7.4, 4 μg/mL doxorubicin alone (control)) | viability at 5 µg/mL (HepG2 cells; [1]) [%] | viability at 5 µg/mL (HepG2 cells; [2]) [%] | Cell Viability (%) Taxol (HepG2 cells; pH = 6.5, 5 μg/mL taxol alone (control)) | Cell Viability (%) Taxol (HepG2 cells; pH = 7.4, 5 μg/mL taxol alone (control)) | viability at 5 µg/mL (HepG2/ADR cells; [1]) [%] | viability at 5 µg/mL (HepG2/ADR cells; [2]) [%]
COc1cccc2c1C(=O)c1c(O)c3c(c(O)c1C2=O)C[C@@](O)(C(=O)CO)C[C@@H]3O[C@H]1C[C@H](N)[C@H](O)[C@H](C)O1 [Doxorubicin, doxorubicin] | 77 | 72.9 | 78.59% and 77.13% | 70.75% and 73.82% |  |  |  |  |  | 
CC(=O)O[C@H]1C(=O)[C@@]2(C)[C@H]([C@H](OC(=O)c3ccccc3)[C@]3(O)C[C@H](OC(=O)[C@H](O)[C@@H](NC(=O)c4ccccc4)c4ccccc4)C(C)=C1C3(C)C)[C@]1(OC(C)=O)CO[C@@H]1C[C@@H]2O [Taxol, taxol] |  |  |  |  | 80.3 | 83.1 | 78.66% and 76.08% | 82.38% and 80.61% | 84.5 | 89.2
